Assay results as given in ChEMBL document CHEMBL1137304, “Fluorinated conformationally restricted gamma-aminobutyric acid aminotransferase inhibitors” (J Med Chem, 2006).

Legend:
[1] = biological target: 4-aminobutyrate aminotransferase, mitochondrial (Sus scrofa, UniProt P80147); assay: Inhibition of pig brain GABA-AT in presence of beta-mercaptoethanol
[2] = biological target: 4-aminobutyrate aminotransferase, mitochondrial (Sus scrofa) (UniProt P80147); assay: Inhibition of pig brain GABA-AT in presence of beta-mercaptoethanol at 0.2 M; conditions: TDE = time-dependent effect
[3] = biological target: 4-aminobutyrate aminotransferase, mitochondrial (Sus scrofa) (UniProt P80147); assay: Residual activity at pig brain GABA-AT assessed by exhaustive dialysis at 0.2 M after 22 hrs relative to control

Chain of 4-aminobutyrate aminotransferase, mitochondrial (Sus scrofa) (P80147 whole entry): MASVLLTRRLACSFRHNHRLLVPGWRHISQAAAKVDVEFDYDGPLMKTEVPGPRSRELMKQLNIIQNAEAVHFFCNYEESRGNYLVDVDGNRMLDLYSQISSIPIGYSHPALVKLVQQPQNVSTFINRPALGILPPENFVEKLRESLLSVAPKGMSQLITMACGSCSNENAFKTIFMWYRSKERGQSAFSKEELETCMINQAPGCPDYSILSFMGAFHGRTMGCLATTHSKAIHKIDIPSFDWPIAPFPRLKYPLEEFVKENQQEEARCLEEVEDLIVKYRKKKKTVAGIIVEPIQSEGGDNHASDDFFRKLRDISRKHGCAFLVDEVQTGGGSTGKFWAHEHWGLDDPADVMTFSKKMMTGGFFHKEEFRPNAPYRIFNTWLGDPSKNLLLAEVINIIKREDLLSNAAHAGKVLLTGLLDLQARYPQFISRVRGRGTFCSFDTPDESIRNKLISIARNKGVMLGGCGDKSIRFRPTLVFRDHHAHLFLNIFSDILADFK
Chain of 4-aminobutyrate aminotransferase, mitochondrial (P80147 whole entry): as above

For N[C@H]1C[C@@H](C(=O)O)CC1=CC(F)(F)F, the Ki [1] was 39.2 mM, the Activity [2] was “tde” and the Activity [3] was 13%.

For N[C@H]1C[C@@H](C(=O)O)C=C1F, the Ki [1] was 1.3 mM.

For N[C@H]1C[C@@H](C(=O)O)C=C1C(F)(F)F, the Ki [1] was 4.11 mM, the Activity [2] was “tde” and the Activity [3] was 48%.

N[C@H]1C[C@@H](C(=O)O)C=C1C(F)(F)C(F)(F)F gave a Ki [1] of 2.8 mM.

For N[C@H]1C[C@@H](C(=O)O)C/C1=C/C(F)(F)F, the Ki [1] was 7.74 mM and the Activity [2] was “tde”.

For N[C@H]1C[C@@H](C(=O)O)CC1=C(C(F)(F)F)C(F)(F)F, the Ki [1] was 4.2 mM.
